Data taken from patent US8546091B2, “AKT phosphorylation at Ser473 as an indicator for taxane-based chemotherapy” (The United States of America, as represented by the …, priority 2009, dated 2013).
Like-named read-outs stand apart in the source and are kept apart here.

Key:
[1] = test system: Akt phosphorylation at serine 473; conditions: literature (MacKeigan 2002; Asakuma 2003); cited from earlier work
[2] = test system: node-positive breast cancer; format: in vivo, human
Description: We designed and conducted a study to correlate Akt phosphorylation with clinical outcome through the primary tumor specimens from the National Surgical Adjuvant Breast and Bowel Project B-28 trial. We tested the hypothesis that phosphorylation of Akt at serine 473 (“pAkt”) predicts a benefit for women with node-positive breast cancer from the sequential addition of paclitaxel after adjuvant doxorubicin plus cyclophosphamide chemotherapy.
Eligible patients signed an approved informed consent which includes tissue collection and research use of collected tissue conforming to federal and institutional guidelines. In this study, the biomarker protocol for the evaluation of Akt phosphorylation in association with disease-free survival and overall survival in patients with node-positive breast cancer treated with either adjuvant doxorubicin plus cyclophosphamide only or followed by paclitaxel was approved by the Institutional Review Boards of the National Cancer institute (Bethesda, Md.) and the National Surgical Adjuvant Breast and Bowel Project (Pittsburgh, Pa.).
HER2 status on the microarray sections were determined by the NSABP central pathology laboratory using PathVision fluorescent in situ hybridization (FISH) assay according to the FDA approved protocol per the manufacturer (Vysis, Downers Grove. Ill.). Data were expressed as the number of HER2 genes per chromosome 17 centromere: tumors with a ratio of […] were classified as HER2-positive, and those with a ratio of <2 were defined as HER2-negative. Estrogen receptor status in tissue microarray sections were also determined by the NSABP central pathology laboratory by immunohistochemistry according to the FDA approved protocol provided by DAKO (PharmDx kit; Carpinteria, Calif.). A positive result (tumor cell nuclear staining) for ER is defined as a total score (ranging from 0, 2-8) of ≧3. The total score is the sum of a proportion score from 0 to 5 and an intensity score of 0 to 3.
Sections were incubated with primary antibody in 1 to 100 dilution for 1 hour at room temperature, and binding of the antibody to its antigenic sites was amplified using Vectastain Elite avidin-biotin peroxidase complex kits (Vector Laboratories, Burlingame, Calif.). The antigen-antibody reaction sites were visualized using 3,3-diaminobenzidine for 7 minutes and, subsequently, sections were counterstained with Mayer's hematoxylin. Breast cancer cell line MDA-MB-468 which expresses pAkt, and a breast cancer specimen known to express pAkt were utilized as positive controls. Negative control was performed using isotype immunoglobulins appropriate to the primary antibodies being used (Zymed Laboratories, South San Francisco, Calif.). The immunostained tissue microarray cores with either cytoplasmic or membranous or nuclear signal were analyzed with the assistance of an Automated Cellular Imaging System (DAKO), blinded to all clinical information, after excluding tissue cores with less than 5% of invasive tumor cells present. The staining intensity and percentage of tumor cells on each tissue core was calculated by the digital imaging system. The staining index ranging from 0 to 62.8 reporting levels of Akt phosphorylation at Ser473 was determined by the percentage multiplied by intensity of staining divided by 100 (intensity X percentage/100) in tumor cells, in which the intensity was subtracted from the average tissue readout of three normal tissue cores. These cores serve as the position markers and tissue negative controls for each array slide.

[3] = test system: node-positive breast cancer; conditions: NSABP B-28, Mamounas et al. 2005; paclitaxel after AC vs AC alone; cited from earlier work
[4] = test system: cancer cells; conditions: literature (MacKeigan 2002; Asakuma 2003); cited from earlier work

CC(=O)O[C@H]1C(=O)[C@@]2(C)[C@H]([C@H](OC(=O)c3ccccc3)[C@]3(O)C[C@H](OC(=O)[C@H](O)[C@@H](NC(=O)c4ccccc4)c4ccccc4)C(C)=C1C3(C)C)[C@]1(OC(C)=O)CO[C@@H]1C[C@@H]2O [paclitaxel]
effect on Akt phosphorylation at serine 473 [1]: inhibits Akt phosphorylation at serine 473 | hazard ratio for disease-free survival ([2]; 606 patients with pAkt positive cancer, with vs without paclitaxel, FIG. 1B, P=0.027): 0.75 | hazard ratio for disease-free survival ([2]; 975 patients with pAkt-negative cancer, with vs without paclitaxel, FIG. 1A, P=0.44): 1.08 | hazard ratio for overall survival ([2]; 1581 patients with pAkt measurement, follow-up 9.1 years, 95% CI 0.79-1.15, P=0.63): 0.96 | hazard ratio for disease-free survival ([2]; 1581 patients with pAkt measurement, follow-up 9.1 years, 95% CI 0.81-1.10, P=0.46): 0.94 | improvement in disease-free survival ([2]; entire B-28 population with pAkt-Ser473 measurements, positive or negative, approximate 10 years of follow-up): 6% | hazard ratio for overall survival ([2]; entire B-28 population, approximate 10 years of follow-up, addition of paclitaxel to AC vs AC, 95% CI 0.81-1.06, P=0.25): 0.92 | hazard ratio for disease-free survival ([2]; entire B-28 population, approximate 10 years of follow-up, sequential addition of paclitaxel to AC vs AC, 95% CI 0.79 to 0.99, P=0.034): 0.89 | adjusted hazard ratio for disease-free survival ([2]; pAkt negative cancer, multivariate proportional-hazards model, FIG. 1C, P=0.81): 1.02 | adjusted hazard ratio for disease-free survival ([2]; pAkt positive breast cancer, multivariate proportional-hazards model, FIG. 1C, P=0.02): 0.74 | hazard ratio for overall survival ([2]; pAkt-negative cancer, P=0.74): 1.04 | adjusted hazard ratio for disease-free survival ([2]; pAkt-negative, HER2-negative tumors, FIG. 3C, P=0.36): 1.12 | adjusted hazard ratio for disease-free survival ([2]; pAkt-negative, HER2-positive tumors, FIG. 3A, P=0.88): 0.96 | adjusted hazard ratio for disease-free survival ([2]; pAkt-negative, estrogen-receptor positive tumors, FIG. 2A, P=0.64): 1.06 | adjusted hazard ratio for disease-free survival ([2]; pAkt-negative, estrogen-receptor-negative tumors, FIG. 2C, P=0.79): 1.04 | improvement in disease-free survival ([2]; pAkt-positive breast cancer, sequential addition of paclitaxel): 26% | hazard ratio for overall survival ([2]; pAkt-positive cancer, P=0.226): 0.83 | adjusted hazard ratio for disease-free survival ([2]; pAkt-positive, HER2-negative tumors, FIG. 3D, P=0.03): 0.70 | adjusted hazard ratio for disease-free survival ([2]; pAkt-positive, HER2-positive tumors, FIG. 3B, P=0.28): 0.72 | adjusted hazard ratio for disease-free survival ([2]; pAkt-positive, estrogen receptor-negative tumors, FIG. 2D, P=0.052): 0.66 | adjusted hazard ratio for disease-free survival ([2]; pAkt-positive, estrogen receptor-positive tumors, FIG. 2B, P=0.24): 0.82 | effect on disease-free and overall survival [3]: significantly improve disease-free survival but not overall survival | effect on survival of cancer cells [4]: reduces the survival cancer cells
